The text below walks through data of US10590373B2, “Systems and methods for biomimetic fluid processing” (BRIGHAM AND WOMEN'S HOSPITAL, INC., priority 2014, dated 2020).

In the experiment the test system is mouse fetal liver culture-derived (mFLC) MKs. The experiment is described as follows: shear-induced proPLT production and PLT release by MKs in the microfluidic device after drug incubation. Conditions: for PLT release: under both static and physiological shear conditions; for shear-induced proPLT production: physiological shear. The experiment is classed as cell-based. As for the experimental part: Devices were coated with a 0.22 μm filtered 10% BSA solution (Millipore, Billerica, Mass.) for 30 minutes to prevent direct cell contact with glass. Referring to FIG. 1, primary MKs and media were infused in the first inlet 118 and second inlet 122, respectively, at a rate of 12.5 μL/hour using a two-syringe microfluidic pump (Harvard Apparatus, Holliston, Mass.). When the first outlet 120 was closed, both input solutions were redirected toward the second outlet 124 causing primary MKs to trap.
For shear cultures, MKs were loaded onto ‘naked’ microfluidic devices (only BSA-coated), and the infusion rate was doubled incrementally from 12.5 μL/hr to 200 μL/hr over a 2 hour period. For static cultures, isolated MKs were pipetted into chambers formed by mounting a glass coverslide coated with 3% BSA onto a […] with a 1 cm hole and cultured for 24 hours. Both static and shear cultures were maintained at 37 degrees C. and 5 percent CO2 and examined on a Zeiss Axiovert 200 (Carl Zeiss, Thornwood, N.Y.) equipped with 10× (numerical aperature, 0.30) Plan-Neofluar air objective. Differential interference contrast (DIC) images were obtained using CCD camera (Hamamatsu Photonics, Boston, Mass.) at either 2 second (shear cultures) or 20 minute (static cultures) intervals. Images were analyzed using the Metamorph version 7.7.2.0 image analysis software (Molecular Devices, Sunnyvale, Calif., USA) and ImageJ software version 1.47p. ProPLT extension rates were determined manually for over 200 MKs from at least three independent samples. For PLT spreading experiments, effluent was collected from microfluidic devices after 2 hours and pipetted into uncoated static culture chambers, described above. PLTs were permitted to contact glass by gravity sedimentation and spreading was captured at 5 second intervals over a 5 minute period.
In vivo BM MKs extend proPLTs in the direction of blood flow and release PLTs, proPLTs, large cytoplasmic fragments (prePLTs), and even whole MKs into sinusoidal blood vessels which may be trapping in the pulmonary microvascular bed, or otherwise maturing in the circulation. To determine the effect of physiological shear on PLT production, mouse fetal liver culture-derived (mFLC) MKs were isolated on culture day 4 and characterized by size and ploidy before being infused into the microfluidic device (shown in FIG. 3A).
While shear rates were kept constant, proPLT extension rates varied at different positions along the shaft, predictive of a regulated cytoskeletal driven mechanism of proPLT elongation (shown in FIG. 4C). […]

Take `CCCCCC[C@@H]([C@@H](C)O)n1cnc2c(N)ncnc21` (racemic) [EHNA]: the PLT release result (1 mM EHNA) is “inhibited”. Where the note is “MKs incubated with 1 mM EHNA prior to infusion in microfluidic device”, the “shear-induced proPLT production” value is “inhibit”.

In the case of `C/C1=C\[C@H](C)C[C@H](C)OC(=O)C[C@H](c2ccc(O)cc2)NC(=O)[C@@H](Cc2c(Br)[nH]c3ccccc23)N(C)C(=O)[C@H](C)NC(=O)[C@@H](C)C1` [Jas, Jasplankinolide], the PLT release result (5 μM Jas) is “inhibited”. Further, where the note is “MKs incubated with 5 μM Jas prior to infusion in microfluidic device”, the “shear-induced proPLT production” value is listed as “inhibit”.
